Patent publication US9493444B2 (Merck Patent GmbH, priority 2012, dated 2016)

System: Wnt pathway (TCF-dependent transcription in HEK293 luciferase reporter cell line with ER-DSH construct)
Assay: Cellular assay for Wnt pathway activity (luciferase reporter)
Format: cell-based
Conditions: Homo sapiens; Wnt pathway inhibition, HEK293 luciferase reporter cells (ER-DSH, TCF promoter), 24 hours incubation, estrogen-induced
Description: 1. Cellular Assay for Wnt Pathway Activity
Compounds were tested for their Wnt pathway inhibitory activities using a luciferase reporter cell based assay. A HEK293 luciferase reporter cell line was used which contained an Estrogen Receptor-Dishevelled (ER-DSH) construct and a T-Cell Factor (TCF) dependent gene promoter luciferase construct.
Compounds, in concentrations from 30 μM down to 1 nM, were incubated for 24 hours on the cells, which were induced for TCF-dependent transcription by the addition of estrogen (10). Luciferase activities were determined using the ONE GLO Luciferase Assay System (Promega) and the ENVISION microplate reader (Perkin Elmer). For analysis, the obtained data were normalized against the untreated vehicle control and fitted for determination of the IC50 values using the Assay Explorer software (Accelrys).

**Q.** `CCc1ccc(C2=NN(C(=O)c3ccc(Oc4cncc(N(C)CCN(C)C(C)=O)n4)cc3)CCC2)cc1` [Compound 148, N-{2-[(6-{4-[3-(4-Ethyl-phenyl)-5,6-dihydro-4H-pyridazine-1-carbonyl]-phenoxy}-pyrazin-2-yl)-methyl-amino]-ethyl}-N-methyl-acetamide] was tested. Which IC50 did it give?
**A.** Its IC50 is 1000 to 10000 nM.

**Q.** How did the IC50 turn out when `CC(=O)c1ccc(Oc2cncc(N(C)CCN(C)C(C)=O)n2)cc1` [Compound 125, N-(2-{[6-(4-Acetyl-phenoxy)-pyrazin-2-yl]-methyl-amino}-ethyl)-N-methyl-acetamide] was run?
**A.** The IC50 was 200 to 1000 nM.

**Q.** For `CC(=O)Nc1ccc(-c2ccc(Oc3cncc(N(C)CCN(C)C(C)=O)n3)c(F)c2)nc1` [Compound 230, N-{6-[4-(6-{[2-(Acetyl-methyl-amino)-ethyl]-methyl-amino}-pyrazin-2-yloxy)-3-fluoro-phenyl]-pyridin-3-yl}-acetamide], which IC50 is on record?
**A.** Its IC50 is less than 200 nM.

**Q.** How did the IC50 turn out when `CC(=O)N(C)CCN(C)c1cncc(Oc2ccc(-c3ccncc3)cc2)n1` [Compound 203, N-Methyl-N-(2-{methyl-[6-(4-pyridin-4-yl-phenoxy)-pyrazin-2-yl]-amino}-ethyl)-acetamide] was run?
**A.** Its IC50 is less than 200 nM.

**Q.** Which IC50 does the source give for `CC(=O)N(C)CCN(C)c1cncc(Oc2ccc(Br)cc2)n1` [Compound 37, N-(2-{[6-(4-Bromo-phenoxy)-pyrazin-2-yl]-methyl-amino}-ethyl)-N-methyl-acetamide] here?
**A.** The IC50 was less than 200 nM.

**Q.** For `CC(=O)N(C)CCN(C)c1cncc(Oc2ccc(Cl)cc2F)n1` [Compound 110, N-(2-{[6-(4-Chloro-2-fluoro-phenoxy)-pyrazin-2-yl]-methyl-amino}-ethyl)-N-methyl-acetamide], which IC50 is on record?
**A.** The IC50 was 200 to 1000 nM.

**Q.** With `CC(=O)N1CCCC1CNc1cncc(Oc2ccc(F)cc2)n1` (stereo not shown) [Compound 62, 1-(2-{[6-(4-Fluoro-phenoxy)-pyrazin-2-ylamino]-methyl}-pyrrolidin-1-yl)-ethanone] as the compound, how does the IC50 read?
**A.** Its IC50 is 1000 to 10000 nM.

**Q.** How did the IC50 turn out when `CC(=O)N(C)CCN(C)c1cncc(Oc2ccc(-c3cccc(N)n3)cc2)n1` [Compound 205, N-[2-({6-[4-(6-Amino-pyridin-2-yl)-phenoxy]-pyrazin-2-yl}-methyl-amino)-ethyl]-N-methyl-acetamide] was run?
**A.** Its IC50 is less than 200 nM.

**Q.** With `CC(=O)N(C)CCN(C)c1cncc(Oc2ccc(-c3ncnc4[nH]ccc34)cc2)n1` [Compound 191, N-Methyl-N-[2-(methyl-{6-[4-(7H-pyrrolo[2,3-d]pyrimidin-4-yl)-phenoxy]-pyrazin-2-yl}-amino)-ethyl]-acetamide] as the compound, how does the IC50 read?
**A.** Its IC50 is less than 200 nM.

**Q.** `CC(=O)N(C)CCN(C)c1cncc(Oc2ccc(-c3ccnc(F)c3)cc2)n1` [Compound 210, N-[2-({6-[4-(2-Fluoro-pyridin-4-yl)-phenoxy]-pyrazin-2-yl}-methyl-amino)-ethyl]-N-methyl-acetamide] was tested. Which IC50 did it give?
**A.** Its IC50 is less than 200 nM.

**Q.** With `COc1cc(-c2ccc(Oc3cncc(N(C)CCN(C)C(C)=O)n3)cc2)ccn1` [Compound 194, N-[2-({6-[4-(2-Methoxy-pyridin-4-yl)-phenoxy]-pyrazin-2-yl}-methyl-amino)-ethyl]-N-methyl-acetamide] as the compound, how does the IC50 read?
**A.** Its IC50 is 200 to 1000 nM.

**Q.** Which IC50 does the source give for `Cc1ccc(-c2ccc(Oc3cncc(NCCC(N)=O)n3)cc2)nc1` [Compound 298, 3-{6-[4-(5-Methyl-pyridin-2-yl)-phenoxy]-pyrazin-2-ylamino}-propionamide] here?
**A.** The IC50 was 200 to 1000 nM.

**Q.** With `COc1ccc(Oc2cncc(N(C)CCN(C)S(=O)(=O)c3ccc(F)cc3F)n2)cc1` [Compound 60, 2,4-Difluoro-N-(2-{[6-(4-methoxy-phenoxy)-pyrazin-2-yl]-methyl-amino}-ethyl)-N-methyl-benzene-sulfonamide] as the compound, how does the IC50 read?
**A.** The IC50 was 1000 to 10000 nM.

**Q.** With `COc1ccc(-c2ccc(Oc3cncc(N(C)CCN(C)C(C)=O)n3)c(F)c2)nc1` [Compound 227, N-[2-({6-[2-Fluoro-4-(5-methoxy-pyridin-2-yl)-phenoxy]-pyrazin-2-yl}-methyl-amino)-ethyl]-N-methyl-acetamide] as the compound, how does the IC50 read?
**A.** The IC50 was less than 200 nM.

**Q.** `CC(=O)N(C)CCNc1cncc(Oc2ccc(-c3ccncc3C#N)cc2)n1` [Compound 242, N-(2-{6-[4-(3-Cyano-pyridin-4-yl)-phenoxy]-pyrazin-2-ylamino}-ethyl)-N-methyl-acetamide] was tested. Which IC50 did it give?
**A.** Its IC50 is 1000 to 10000 nM.

**Q.** How did the IC50 turn out when `CC(=O)N(C)CCN(C)c1cncc(Oc2ccc(-c3ccc(N=[N+]=[N-])cn3)cc2)n1` [Compound 273, N-[2-({6-[4-(5-Azido-pyridin-2-yl)-phenoxy]-pyrazin-2-yl}-methyl-amino)-ethyl]-N-methyl-acetamide] was run?
**A.** Its IC50 is less than 200 nM.

**Q.** For `CC(=O)N(C)CCN(C)c1cncc(Oc2ccc(-c3ccc(Cl)cc3)c(F)c2F)n1` [Compound 249, N-(2-{[6-(4′-Chloro-2,3-difluoro-biphenyl-4-yloxy)-pyrazin-2-yl]-methyl-amino}-ethyl)-N-methyl-acetamide], which IC50 is on record?
**A.** The IC50 was 200 to 1000 nM.

**Q.** `CC(=O)N(C)CCN(C)c1cncc(Oc2ccc(-c3cccc(C)n3)cc2)n1` [Compound 160, N-Methyl-N-[2-(methyl-{6-[4-(6-methyl-pyridin-2-yl)-phenoxy]-pyrazin-2-yl}-amino)-ethyl]-acetamide] was tested. Which IC50 did it give?
**A.** Its IC50 is less than 200 nM.

**Q.** How did the IC50 turn out when `CCN(CCN(CC)c1cncc(Oc2ccc(OC)cc2)n1)C(C)=O` [Compound 103, N-Ethyl-N-(2-{ethyl-[6-(4-methoxy-phenoxy)-pyrazin-2-yl]-amino}-ethyl)-acetamide] was run?
**A.** Its IC50 is 200 to 1000 nM.

**Q.** How did the IC50 turn out when `CC(=O)N(C)CCN(C)c1cncc(Oc2ccc(OC(F)(F)F)cc2)n1` [Compound 131, N-Methyl-N-(2-{methyl-[6-(4-trifluoro-methoxy)-pyrazin-2-yl]-amino}-ethyl)-acetamide] was run?
**A.** Its IC50 is less than 200 nM.

**Q.** How did the IC50 turn out when `CC(=O)N(C)CCN(C)c1cncc(Oc2ccc(-c3ccc(CCN)cc3)cc2)n1` [Compound 251, N-[2-({6-[4′-(2-Amino-ethyl)-biphenyl-4-yloxy]-pyrazin-2-yl}-methyl-amino)-ethyl]-N-methyl-acetamide] was run?
**A.** Its IC50 is less than 200 nM.

**Q.** Which IC50 does the source give for `CC(=O)N(C)CCN(C)c1cncc(Oc2ccc(Cl)cc2)n1` [Compound 36, N-(2-{[6-(4-Chloro-phenoxy)-pyrazin-2-yl]-methyl-amino}-ethyl)-N-methyl-acetamide] here?
**A.** Its IC50 is 200 to 1000 nM.

**Q.** For `CC(=O)N(C)CCCc1cncc(Oc2ccc(-c3ccc([N+](=O)[O-])cn3)cc2F)n1` [Compound 274, N-(3-{6-[2-Fluoro-4-(5-nitro-pyridin-2-yl)-phenoxy]-pyrazin-2-yl}-propyl)-N-methyl-acetamide], which IC50 is on record?
**A.** Its IC50 is 1000 to 10000 nM.

**Q.** With `Nc1cnc(-c2ccc(Oc3cncc(CCCN4CCCCC4=O)n3)cc2)cn1` [Compound 263, 1-(3-{6-[4-(5-Amino-pyrazin-2-yl)-phenoxy]-pyrazin-2-yl}-propyl)-piperidin-2-one] as the compound, how does the IC50 read?
**A.** The IC50 was less than 200 nM.

**Q.** Which IC50 does the source give for `CC(=O)N(C)CCCc1cncc(Oc2ccc(F)cc2)c1` [Compound 304, N-{3-[5-(4-Fluoro-phenoxy)-pyridin-3-yl]-propyl}-N-methyl-acetamide] here?
**A.** The IC50 was 200 to 1000 nM.

**Q.** With `CCOc1ccc(-c2ccc(Oc3cncc(N(C)CCN(C)C(C)=O)n3)cc2)c(F)c1F` [Compound 180, N-(2-{[6-(4′-Ethoxy-2′,3′-difluoro-biphenyl-4-yloxy)-pyrazin-2-yl]-methyl-amino}-ethyl)-N-methyl-acetamide] as the compound, how does the IC50 read?
**A.** Its IC50 is 200 to 1000 nM.

**Q.** With `CC(=O)N(C)CCOc1cncc(Oc2ccc(F)cc2)n1` [Compound 188, N-{2-[6-(4-Fluoro-phenoxy)-pyrazin-2-yloxy]-ethyl}-N-methyl-acetamide] as the compound, how does the IC50 read?
**A.** Its IC50 is 1000 to 10000 nM.

**Q.** Which IC50 does the source give for `CC(=O)N(C)CCN(C)c1cncc(Oc2ccc(-c3cc4cc[nH]c4cn3)cc2)n1` [Compound 190, N-Methyl-N-[2-(methyl-{6-[4-(1H-pyrrolo[2,3-c]pyridin-5-yl)-phenoxy]-pyrazin-2-yl}-amino)-ethyl]-acetamide] here?
**A.** Its IC50 is less than 200 nM.

**Q.** How did the IC50 turn out when `CC(=O)N(C)CCNc1cncc(Oc2ccc(-c3ccc(F)cn3)cc2)n1` [Compound 262, N-(2-{6-[4-(5-Fluoro-pyridin-2-yl)-phenoxy]-pyrazin-2-ylamino}-ethyl)-N-methyl-acetamide] was run?
**A.** Its IC50 is 1000 to 10000 nM.

**Q.** With `CC(=O)N(C)CCN(C)c1cncc(Oc2ccc3[nH]ccc3c2)n1` [Compound 106, N-(2-{[6-(1H-Indol-5-yloxy)-pyrazin-2-yl]-methyl-amino}-ethyl)-N-methyl-acetamide] as the compound, how does the IC50 read?
**A.** The IC50 was 200 to 1000 nM.

**Q.** For `CC(=O)N(C)CCN(C)c1cncc(Oc2ccc(-c3cncc(C)c3)cc2)n1` [Compound 212, N-Methyl-N-[2-(methyl-{6-[4-(5-methyl-pyridin-3-yl)-phenoxy]-pyrazin-2-yl}-amino)-ethyl]-acetamide], which IC50 is on record?
**A.** The IC50 was 200 to 1000 nM.

**Q.** For `CC(=O)N(C)CCNc1cncc(Oc2ccc(-c3ccncc3)cc2)n1` [Compound 255, N-Methyl-N-{2-[6-(4-pyridin-4-yl-phenoxy)-pyrazin-2-ylamino]-ethyl}-acetamide], which IC50 is on record?
**A.** Its IC50 is 1000 to 10000 nM.

**Q.** `COc1ccc(-c2ccc(Oc3cncc(CCCN(C)C(C)=O)n3)cc2)nc1` [Compound 221, N-(3-{6-[4-(5-Methoxy-pyridin-2-yl)-phenoxy]-pyrazin-2-yl}-propyl)-N-methyl-acetamide] was tested. Which IC50 did it give?
**A.** Its IC50 is 200 to 1000 nM.

**Q.** How did the IC50 turn out when `CCOC(=O)c1cccc(Oc2cncc(N(C)CCN(C)C(C)=O)n2)c1` [Compound 45, 3-(6-{[2-(Acetyl-methyl-amino)-ethyl]-methyl-amino}-pyrazin-2-yloxy)-benzoic acid ethyl ester] was run?
**A.** The IC50 was 1000 to 10000 nM.

**Q.** How did the IC50 turn out when `CC(=O)N(C)CCCc1cncc(Oc2ccc(-c3ccncc3C#N)cc2)n1` [Compound 213, N-(3-{6-[4-(3-Cyano-pyridin-4-yl)-phenoxy]-pyrazin-2-yl}-propyl)-N-methyl-acetamide] was run?
**A.** The IC50 was 200 to 1000 nM.

**Q.** `CC(=O)N(C)CCCc1cncc(Oc2ccc(-c3ccc(C)cn3)cc2)c1` [Compound 312, N-Methyl-N-(3-{5-[4-(5-methyl-pyridin-2-yl)-phenoxy]-pyridin-3-yl}-propyl)-acetamide] was tested. Which IC50 did it give?
**A.** The IC50 was 1000 to 10000 nM.

**Q.** Which IC50 does the source give for `CC(=O)OCc1ccc(Oc2cncc(N(C)CCN(C)C(C)=O)n2)cc1` [Compound 176, Acetic acid 4-(6-{[2-(acetyl-methyl-amino)-ethyl]-methyl-amino}-pyrazin-2-yloxy)-benzyl ester] here?
**A.** The IC50 was less than 200 nM.
